Assay results as given in US9433588B2, “Delivery of submicrometer and nanometer aerosols to the lungs using hygroscopic excipients or dual stream nasal delivery” (Virginia Commonwealth Univeristy, priority 2009, dated 2016).
Where two headings read alike, the source gives them in different places. Marks after values point to notes of the source that are not given here.

Columns and labels:
[1] = Hygroscopic properties of drugs and excipients (saturation limits, i coefficients, hygroscopic parameter); assay type: physicochemical; conditions: for Saturated mass fraction (mfsat): mass fraction that can be dissolved in liquid water at 25° C.; for Predicted van't Hoff factor (i): measured in this study, best fit of Eq. (15) to water activity data; for Saturated mole fraction (χsat): mole fraction that can be dissolved in liquid water at 25° C.
Protocol: It is noted that Eq. (15) has a form similar to Raoult's law and is valid for materials that may (i>1) or may not (i=1) dissociate upon dissolution. Specifically, Raoult's law provides a linear expression to describe activity coefficients at low solute concentrations, as presented by Finlay (2001). […] Furthermore, values of the i coefficients in this study are determined based on best fits to experimental data over a range of concentrations. Therefore, the application of Eq. (15) can be viewed as a physically based expression for fitting the experimental data. Finally, high accuracy is required at dilute concentrations, which have the largest impact on the final size achieved by the hygroscopic aerosol.
Experimental measurements were made in this study to determine the water activity coefficients of AS, CA, and PG. Activity coefficients for NaCl and MN were determined from the studies of Cinkotai (1971) and Ninni (2000), respectively. […] In order to represent the hygroscopic effect of molecular dissociation with a single coefficient, curve fits to the experimental data were based on Eq. (15) for a single component solution. The optimal value of i providing the best fit to the experimental data was calculated using a minimization routine. […] This limit was used to ensure accuracy of the i-values for dilute droplets, which is needed to ensure accurate estimates of final droplet size.
[formula] where m and M represent the mass (kg) and molar mass (kg/kmol) of the solute (s) and water (w). […] Based on Eq. (15), is directly impacts the activity coefficient and ρs influences the mass term in the mole fraction calculation (Eq. 17). […] This effect of initial drug or excipient loading can be taken into account as a function of the initial solute volume fraction (vfs). The resulting growth coefficient (GC1) for a single component droplet is then

[2] = cited from earlier work; for Predicted van't Hoff factor (i): Eq. (15) fit based on Ninni et al. (2000) measurements (MN) or Cinkotai (1971) correlations (NaCl)
[3] = Generation of submicrometer aerosol with small particle aerosol generator (SPAG) and drying gas; assay type: physicochemical; conditions: SPAG nebulized and dried; 560 nm: 0.1% solution, 7.5 and 3 L/min; 900 nm: 0.5% solution, 7 and 3 L/min
Protocol: With LFT, a heated air source is not present for aerosol size reduction, as with HFT. However, medical gases used with LFT (oxygen and helium-oxygen) are typically dry. A study was conducted to evaluate if dry medical-grade gas could be used to produce a submicrometer aerosol from a commercially available nebulizer. A small particle aerosol generator (SPAG) was employed, which functions as a jet nebulizer with an additional relatively large and inefficient drying chamber. […] Specifically, albuterol sulfate solutions were nebulized and dried using a series of nebulizer airflow conditions to produce aerosols with initial mean MMADs (and standard deviations) of 150 (5.5) nm, 560 (11.4) nm, and 900 (32.7) nm (FIG. 11). The 560 nm aerosol was generated using a 0.1% albuterol sulfate in water solution with a nebulizer gas flow rate of 7.5 L/min and a drying gas flow rate of 3 L/min. […]
Nano-sized aqueous-based drug aerosols were generated using a small particle aerosol generator (SPAG-6000, ICN Pharmaceuticals, Costa Mesa, Calif.), and were delivered through a nasal model geometry airway in the presence and absence of ECG conditions. Albuterol sulfate solutions were nebulized using a series of nebulizer airflow conditions to produce aerosols with initial mean (SD) measured size of 900 (32.7) nm. […]

[4] = In vitro growth system for validation of the numerical model (CAG, growth zone, MOUDI); assay type: physicochemical
Protocol: Submicrometer drug and drug-hygroscopic excipient particles were formed using a capillary aerosol generator (CAG). The capillary aerosol generation system is described and considered in detail by the previous studies of Hindle et al. (1998) and Longest et al. (2007). In the current study, the formulation was a mixture of 50% water and 50% ethanol by weight to dissolve both hydrophilic and hydrophobic drugs. This solution was heated and pumped through the CAG at a flow rate of 10 mg/s to form the spray aerosol. Single drug and drug-hygroscopic excipient particles were created experimentally for albuterol sulfate (AS), budesonide (BD), and sodium chloride (NaCl). Specifically, single component drug particles were formed using a 0.2% w/v AS solution and a 0.15% w/v BD solution, respectively. Combination drug-hygroscopic excipient particles were generated using a 0.1% AS-0.1% NaCl w/v solution and a 0.1% BD-0.1% NaCl w/v solution, respectively. The spray aerosol was allowed to dry into solid particles by passage through a 52 cm length of dry tubing (FIG. 3). Initial particle size was then assessed by connecting the tubing to a 10 stage MOUDI (MSP Corp, Shoreview, Minn.). To produce growth, the aerosol stream was combined with humidified air at T=25° C. and RH=99% sampled from an environmental cabinet. […] This length was selected to provide a residence time of approximately 0.2 s, which is consistent with the time required for an orally inhaled pharmaceutical aerosol to reach the main bifurcation of the lungs under standard inhalation conditions. Walls of the growth section were pre-wetted to simulate the wet walled conditions of the respiratory tract, which stimulates aerosol growth. The growth tube was not heated and was exposed to 24° C. room temperature air for this initial validation experiment. After exiting the growth tube, the aerosol was passed into the 10 stage MOUDI for size characterization.
In separate experiments, the temperature and humidity of the humidified air and the temperature of the aerosol mixture stream at the inlet to the condensational growth tube were measured. […]
The initial aerodynamic particle size distribution of the aerosol exiting the drying section of tubing was determined using the 10 stage MOUDI operated at 30±2 L/min, which allowed size fractionation between 50 nm and 10 μm. […] The final aerodynamic particle size distribution of the aerosol exiting the condensational growth tube was also determined using the MOUDI operated at 30±2 L/min. […] The mass of drug and excipient on each impaction plate was determined and used to calculate both the initial and final aerodynamic particle size distributions of the drug and combination aerosols. […]

[5] = Hygroscopic growth tube, CAG nanoparticle aerosols sized by cascade impactor; assay type: physicochemical; conditions: Table 2
Protocol: Budesonide nanoparticle aerosols were generated using the Capillary Aerosol Generator (CAG). This technology represents a generic means of producing engineered pharmaceutical nanosized particles suitable for inhalation. The CAG utilizes controlled heating of a liquid formulation passing through a capillary tube to produce nanosized dry particles exiting the capillary nozzle.
Hygroscopic growth of these nanoparticle aerosols was evaluated by passing the aerosol through a growth tube. Briefly, following nanoparticle generation the aerosols were drawn through the 29 cm hygroscopic growth tube at a flow rate of 30 L/min. The tube was held at 37° C. and 99% relative humidity (RH) to simulate expected lung conditions. The growth tube was approximately 29 cm, which is consistent with the distance from the mouth inlet to the main bronchi of an adult. Following passage through the tubular geometry the aerosols were delivered to the 10-stage MOUDI or Andersen Cascade Impactor (ACI; Graseby-Andersen Inc, Smyrna, Ga.) for particle sizing. Both the tubular geometry and the cascade impactor were placed in an environmental chamber (Espec Environmental Cabinet, Hudsonville, Mich.) to maintain constant temperature and humidity conditions. The ACI was employed following hygroscopic growth when it was expected that the aerosols produced would be in the 1-3 μm size range. For these studies, the final aerodynamic particle size distribution of the aerosol exiting the hygroscopic growth tube was determined at 28±2 L/min, and humidified co-flow air (99% RH) was supplied to the impactor. […] The mass of drug on each impaction plate was determined and used to calculate both the initial and final aerodynamic particle size distributions of the drug aerosols. The growth ratios were calculated by comparing the final size with the initial size of the nanoparticle as a measure of hygroscopic size increase.
Hygroscopic growth of these nanoparticle aerosols was evaluated by passing the aerosol through a growth tube as described in Example 1. […]

Compound | Hygroscopic parameter isρs/Ms [1] | Saturated mass fraction (mfsat) [1] | Predicted van't Hoff factor (i) [1] | Saturated mole fraction (χsat) [1] | Predicted van't Hoff factor (i) [2] | Predicted van't Hoff factor (i) ([2]; listed as NaCl) | i coefficient, Raoult's law form of the equation ([2]; NaCl data of Cinkotai (1971), through mfs = 0.3) | initial mean MMAD (standard deviation) [3] | Initial MMAD ([4]; at inlet to growth zone, SD in parentheses, minimum 4 trials) | Initial dgeo ([4]; calculated from MMAD and dry particle density) | Final dgeo ([4]; outlet of 26 cm growth tube, about 0.2 s, 99% RH, assumed equal to the MMAD) | d/do ([4]; ratio of final to initial geometric diameters) | Initial MMAD ([5]; CAG-generated albuterol nanoparticles before growth tube, n = 3-4) | Final MMAD (99% RH) ([5]; after 29 cm growth tube, 37° C., 99% RH) | Growth ratio ([5]; final size compared with initial size, 29 cm growth tube, 99% RH)
O=C(O)CC(O)(CC(=O)O)C(=O)O [Citric acid (CA), Citric acid] | 16.5 kmol/m^3 | 0.57 | 1.9^d | 0.11 |  |  |  |  |  |  |  |  |  |  | 
OC[C@@H](O)[C@@H](O)[C@H](O)[C@H](O)CO [Mannitol (MN), Mannitol] | 8.2 kmol/m^3 | 0.15 |  | 0.018 | 1.0^e |  |  |  |  |  |  |  |  |  | 
CC(O)CO (centres unmarked) [Propylene glycol (PG), Propylene glycol] | 13.6 kmol/m^3 | 1.00 | 1.0^d | 1.00 |  |  |  |  |  |  |  |  |  |  | 
[Cl-].[Na+] [Sodium chloride (NaCl), Sodium chloride] | 77.9 kmol/m^3 | 0.265 |  |  | 2.1^f | 2.1 | 1.9 |  |  |  |  |  |  |  | 
Albuterol sulfate [Albuterol sulfate (100%)] | 4.9 kmol/m^3 | 0.28 | 2.1 | 0.012 |  |  |  | 900 (32.7) nm | 0.38 (0.01)^a μm | 0.33 μm | 0.51 (0.04) μm | 1.55 (0.12) | 380 nm | 510 nm | 1.35
